We go through two molecules from publication PMC8844858, “Crystal structure and functional analysis of mycobacterial erythromycin resistance methyltransferase Erm38 reveals its RNA-binding site” (The Journal of Biological Chemistry, 2022).

Like-named read-outs stand apart in the source and are kept apart here.

The target of this assay is T1, Erm38 (Mycolicibacterium smegmatis, UniProt Q79N53).
T1 construct: gene erm(38); truncated, residues 13-261 of 386 (disordered termini removed), about 30 kDa; synthetic codon-optimised gene in pNIC28-Bsa4, E. coli BL21(DE3)-T1R Rosetta; IMAC, cation exchange and size exclusion
The conditions noted are these: 2.25 A, SAM-binding site.

T1 sequence (Q79N53 entry or part of it): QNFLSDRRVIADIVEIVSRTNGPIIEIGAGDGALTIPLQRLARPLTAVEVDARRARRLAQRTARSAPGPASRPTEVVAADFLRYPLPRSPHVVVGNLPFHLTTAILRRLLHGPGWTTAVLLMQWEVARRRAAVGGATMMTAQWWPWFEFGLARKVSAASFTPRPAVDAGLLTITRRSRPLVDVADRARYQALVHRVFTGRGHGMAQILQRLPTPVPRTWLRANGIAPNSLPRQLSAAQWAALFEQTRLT

With `Nc1ncnc2c1ncn2[C@@H]1O[C@H](C[C@@H](N)CC[C@H](N)C(=O)O)[C@@H](O)[C@H]1O` [SFG, sinefungin], the “X-ray crystal structure (soak)” value (2 mM sinefungin soaked 24 h into native crystals) is reported as “cocrystals with either SAM or the isosteric sinefungin inhibitor were obtained by soaking”.

Take `C[S+](CC[C@H](N)C(=O)O)C[C@H]1O[C@@H](n2cnc3c(N)ncnc32)[C@H](O)[C@@H]1O` (some centres unmarked) [SAM]: the “X-ray crystal structure (soak)” value (2 mM SAM soaked 24 h into native crystals) is “cocrystals with either SAM or the isosteric sinefungin inhibitor were obtained by soaking”.
